Calls of active or inactive are those of the source.
Key:
T47D = assay: Growth inhibition of human T47D cells at 10 uM after 48 hrs; type: functional
K562 = assay: Growth inhibition of human K562 cells at 10 uM after 48 hrs; type: functional
KM12 = assay: Growth inhibition of human KM12 cells at 10 uM after 48 hrs; type: functional
Candida albicans = assay: Antimicrobial activity against Candida albicans assessed as inhibition zone at 200 ug/disk after 24 hrs by disc-diffusion method; type: functional; settings: read-out: IZ
Pseudomonas aeruginosa = assay: Antimicrobial activity against Pseudomonas aeruginosa assessed as inhibition zone at 200 ug/disk after 24 hrs by disc-diffusion method; type: functional; settings: read-out: IZ
NCI-H226 = assay: Growth inhibition of human NCI-H226 cells at 10 uM after 48 hrs; type: functional
Escherichia coli = assay: Antimicrobial activity against Escherichia coli assessed as inhibition zone at 200 ug/disk after 24 hrs by disc-diffusion method; type: functional; settings: read-out: IZ
UACC-257 = assay: Growth inhibition of human UACC257 cells at 10 uM after 48 hrs; type: functional
Staphylococcus aureus = assay: Antimicrobial activity against Staphylococcus aureus assessed as inhibition zone at 200 ug/disk after 24 hrs by disc-diffusion method; type: functional; settings: read-out: IZ
PC-3 = assay: (§1) Growth inhibition of human PC3 cells at 10 uM after 48 hrs; type: functional
UO-31 = assay: (§2) Growth inhibition of human UO31 cells at 10 uM after 48 hrs; type: functional
CAKI-1 = assay: Growth inhibition of human CAKI-1 cells at 10 uM after 48 hrs; type: functional
A498 = assay: Growth inhibition of human A498 cells at 10 uM after 48 hrs; type: functional
Hs-578T = assay: (§3) Growth inhibition of human Hs 578T cells at 10 uM after 48 hrs; type: functional
786-0 = assay: Growth inhibition of human 786-0 cells at 10 uM after 48 hrs; type: functional
RXF 393 = assay: Growth inhibition of human RXF393 cells at 10 uM after 48 hrs; type: functional
Malme-3M = assay: Growth inhibition of human MALME-3M cells at 10 uM after 48 hrs; type: functional
HT-29 = assay: Growth inhibition of human HT-29 cells at 10 uM after 48 hrs; type: functional
RPMI-8226 = assay: Growth inhibition of human RPMI8226 cells at 10 uM after 48 hrs; type: functional
SNB-19 = assay: Growth inhibition of human SNB19 cells at 10 uM after 48 hrs; type: functional
UACC-62 = assay: Growth inhibition of human UACC62 cells at 10 uM after 48 hrs; type: functional
SR = assay: Growth inhibition of human SR cells at 10 uM after 48 hrs; type: functional
SK-MEL-28 = assay: Growth inhibition of human SK-MEL-28 cells at 10 uM after 48 hrs; type: functional, cell-based
HL-60(TB) = assay: Growth inhibition of human HL-60(TB) cells at 10 uM after 48 hrs; type: functional
OVCAR-4 = assay: Growth inhibition of human OVCAR4 cells at 10 uM after 48 hrs; type: functional
HOP-92 = assay: (§4) Growth inhibition of human HOP92 cells at 10 uM after 48 hrs; type: functional
U-251 = assay: Growth inhibition of human U251 cells at 10 uM after 48 hrs; type: functional
HCT-15 = assay: Growth inhibition of human HCT15 cells at 10 uM after 48 hrs; type: functional
SF-539 = assay: Growth inhibition of human SF539 cells at 10 uM after 48 hrs; type: functional
Dihydrofolate reductase = target: T1, Dihydrofolate reductase (Bos taurus, UniProt P00376); assay: Inhibition of bovine liver DHFR
T1 sequence (P00376 whole entry): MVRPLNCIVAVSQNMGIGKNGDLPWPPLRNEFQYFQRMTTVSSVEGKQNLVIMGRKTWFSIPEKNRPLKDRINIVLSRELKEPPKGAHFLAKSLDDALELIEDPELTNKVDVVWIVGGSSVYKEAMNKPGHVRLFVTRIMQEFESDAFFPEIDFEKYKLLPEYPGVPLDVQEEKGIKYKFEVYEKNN

SF-295 = assay: (§5) Growth inhibition of human SF295 cells at 10 uM after 48 hrs; type: functional
MDA-MB-468 = assay: Growth inhibition of human MDA-MB-468 cells at 10 uM after 48 hrs; type: functional
A549 = assay: Growth inhibition of human A549 cells at 10 uM after 48 hrs; type: functional
MDA-MB-435 = assay: Growth inhibition of human MDA-MB-435 cells at 10 uM after 48 hrs; type: functional
MDA-MB-231 = assay: Growth inhibition of human MDA-MB-231 cells at 10 uM after 48 hrs; type: functional
HOP-62 = assay: Growth inhibition of human HOP62 cells at 10 uM after 48 hrs; type: functional
MOLT-4 = assay: Growth inhibition of human MOLT4 cells at 10 uM after 48 hrs; type: functional
SK-MEL-5 = assay: Growth inhibition of human SK-MEL-5 cells at 10 uM after 48 hrs; type: functional
HCT-116 = assay: Growth inhibition of human HCT116 cells at 10 uM after 48 hrs; type: functional
MCF7 = assay: Growth inhibition of human MCF7 cells at 10 uM after 48 hrs; type: functional
CCRF-CEM = assay: Growth inhibition of human CCRF-CEM cells at 10 uM after 48 hrs; type: functional
NCI-H522 = assay: Growth inhibition of human NCI-H522 cells at 10 uM after 48 hrs; type: functional
Bacillus subtilis = assay: Antimicrobial activity against Bacillus subtilis assessed as inhibition zone at 200 ug/disk after 24 hrs by disc-diffusion method; type: functional; settings: read-out: IZ
[1] = as §1; type: functional; settings: PC-3, 48 h, read-out: GI
[2] = as §2; type: functional; settings: UO-31, 48 h, read-out: GI
[3] = as §3; type: functional; settings: read-out: GI
[4] = as §4; type: functional; settings: HOP-92, 48 h, read-out: GI
[5] = as §5; type: functional; settings: SF-295, 48 h, read-out: GI

COc1ccc(-n2c(Sc3nnc(N)s3)nc3ccc(C)cc3c2=O)cc1
8 mm: zone of inhibition at 200 µg/disc (Candida albicans) | zone of inhibition at 200 µg/disc (Pseudomonas aeruginosa) | zone of inhibition at 200 µg/disc (Escherichia coli) | zone of inhibition at 200 µg/disc (Staphylococcus aureus) | zone of inhibition at 200 µg/disc (Bacillus subtilis)
3 µM: IC50 (Dihydrofolate reductase)
inactive: growth inhibition (GI) (T47D) | growth inhibition (GI) (K562) | growth inhibition (GI) (KM12) | growth inhibition (GI) (NCI-H226) | growth inhibition (GI) (UACC-257) | growth inhibition (GI) (PC-3) | growth inhibition (GI) (UO-31) | growth inhibition (GI) (CAKI-1) | growth inhibition (GI) (A498) | growth inhibition (GI) (Hs-578T) | growth inhibition (GI) (786-0) | growth inhibition (GI) (RXF 393) | growth inhibition (GI) (Malme-3M) | growth inhibition (GI) (HT-29) | growth inhibition (GI) (RPMI-8226) | growth inhibition (GI) (SNB-19) | growth inhibition (GI) (UACC-62) | growth inhibition (GI) (SR) | growth inhibition (GI) (SK-MEL-28) | growth inhibition (GI) (HL-60(TB)) | growth inhibition (GI) (OVCAR-4) | growth inhibition (GI) (HOP-92) | growth inhibition (GI) (U-251) | growth inhibition (GI) (HCT-15) | growth inhibition (GI) (SF-539) | growth inhibition (GI) (SF-295) | growth inhibition (GI) (MDA-MB-468) | growth inhibition (GI) (A549) | growth inhibition (GI) (MDA-MB-435) | growth inhibition (GI) (MDA-MB-231) | growth inhibition (GI) (HOP-62) | growth inhibition (GI) (MOLT-4) | growth inhibition (GI) (SK-MEL-5) | growth inhibition (GI) (HCT-116) | growth inhibition (GI) (MCF7) | growth inhibition (GI) (CCRF-CEM) | growth inhibition (GI) (NCI-H522)

COc1cc2nc(Sc3nnc(N)s3)n(-c3ccc(Cl)cc3)c(=O)c2cc1OC
11.9%: inhibition of growth at 10 µM (SNB-19; SNB-19, 48 h, read-out: GI)
14.4%: inhibition of growth at 10 µM (SR; read-out: GI)
10.9%: inhibition of growth at 10 µM [3]
12.6%: inhibition of growth at 10 µM (CAKI-1; CAKI-1, 48 h, read-out: GI)
8 mm: zone of inhibition at 200 µg/disc (Candida albicans) | zone of inhibition at 200 µg/disc (Pseudomonas aeruginosa) | zone of inhibition at 200 µg/disc (Escherichia coli) | zone of inhibition at 200 µg/disc (Staphylococcus aureus) | zone of inhibition at 200 µg/disc (Bacillus subtilis)
15.3%: inhibition of growth at 10 µM (K562; K562, 48 h, read-out: GI)
12.1%: inhibition of growth at 10 µM [5]
18.8%: inhibition of growth at 10 µM (A498; A498, 48 h, read-out: GI)
11.5%: inhibition of growth at 10 µM (U-251; U-251, 48 h, read-out: GI)
6 µM: IC50 (Dihydrofolate reductase)
13.7%: inhibition of growth at 10 µM (T47D; read-out: GI)
23.6%: inhibition of growth at 10 µM [2]
11.2%: inhibition of growth at 10 µM [1]
12.4%: inhibition of growth at 10 µM (Malme-3M; read-out: GI)
31.5%: inhibition of growth at 10 µM (HL-60(TB); HL-60, 48 h, read-out: GI)
40.9%: inhibition of growth at 10 µM [4]
